This passage reports melting point results from a melting point compilation (Tetko et al.; mined from patent text by program, amines drawn as free bases though some values may be those of a salt).

The melting point is the temperature of the solid-liquid transition. `NC(=O)c1ncn(C2OC(COC(=O)c3ccccc3)C(O)C2O)n1` (stereo not drawn) displayed a melting point of 182 to 184 °C.
With `Cc1ccc2c(c1)C(c1ccc(C(C)C)cc1)C(C)(C)O2` (stereo not drawn), the melting point was in the range of 65 to 66 °C.
Take `CONCc1nc2c(N)nc3ccccc3c2n1CC1(O)CCC1`: the melting point was in the range of 178 to 181 °C.
Regarding `CCOC(=O)c1cc(C#N)c(C=O)nc1NC`, the melting point fell in the range of 137 to 139 °C.
On to `COn1c(C#N)c(C#N)c(Br)c1-c1ccc(Cl)cc1`, for which the melting point is 166 to 167 °C.
Molecule `Cc1[nH]cnc1CSCCNc1ncc(Cc2ccccc2)cc1C#N` gave a melting point of 105 to 106 °C.
`COc1cc(Nc2c(C#N)cnc3cc(-c4ccc(CN5CCOCC5)nc4)ccc23)c(Cl)cc1Cl` gave a melting point of 195 to 197 °C.
The value for `Cc1cc(-c2ccc(C(F)(F)F)nc2)nc(-c2ccnc(-c3ccc(S(N)(=O)=O)s3)c2)n1` was 289 °C.
Turning to `CCC(=O)NCCC1CCc2ccc3nc(C)oc3c21` (stereo not drawn), the melting point lay in the range of 111 to 113 °C.
With `Cc1ccc(S(=O)(=O)N2CCOC(C)(C)C2)cc1`, the melting point lay within 95 to 97 °C.
In turn, `CC(C)(C)OC(=O)NCC(N)c1c[nH]c2ccc(Br)cc12` (stereo not drawn) registered a melting point of 151 °C.
Molecule `Cc1nn(-c2cc(F)c(C#N)cc2F)c(C)c1Cl` registered a melting point of 153 °C.
In turn, `Brc1ccc(C2OCCO2)cc1` registered a melting point of 56 to 57 °C.
In the case of `O=C(O)c1cccc2[nH]c(=O)c(-c3csc(-c4ccncc4)n3)cc12` it was more than 250 °C; in that of `Cc1nc(NCc2ccccn2)n(C)c(=O)c1CCO`, 245 °C; in that of `COC(=O)[C@@H]1C[C@H](OS(=O)(=O)c2ccccc2Br)C(=O)[C@@H]2[C@@]3(C)C[C@@H](c4ccoc4)OC(=O)[C@H]3CC[C@]21C`, 162 to 163 °C.
`CC(=O)OCc1nc2ccc(Oc3cc(C)c(OC(C)=O)c(C)c3C)nc2n1C` yielded a melting point of 128 to 129 °C.
In the case of `CCCN(CCC)C1CCc2ccc(NC(=O)C=NO)cc2C1` (stereo not drawn), the melting point was in the range of 82 to 85 °C.
The value for `CCc1cc(=O)c2c([nH]1)CCCN2C(=O)C(F)(F)F` was 271 to 274 °C.
In the case of `O=C1Nc2ccccc2CC(C(=O)Nc2ccc(Br)cc2)C1=O` (stereo not drawn) it was 226 to 228 °C; in that of `COC(=O)Cc1cn(C)nc1OCc1ccc(OCc2csc(-c3ccccc3)n2)nc1`, 85 to 86 °C.
In the case of `Cc1noc(NC(=O)C(c2ccccc2)c2ccccc2)n1` it was 215 °C; in that of `Cc1c(Cl)c(Oc2ccc(C(F)(F)F)cc2[N+](=O)[O-])nn1C(=O)NC(C)C`, 89 to 91 °C; in that of `CCCn1cc(C(=O)NCc2ccc(Cl)cc2)c(=O)c2cc(CO)sc21`, 174 to 175 °C.
For `O=[N+]([O-])c1ccc(Cl)cc1-c1nc2ccccc2o1`, the melting point was in the range of 130 to 132 °C.
In the case of `COC(=O)c1c(Cl)cc(Cl)cc1NC(=O)C(C)c1ccccc1` (stereo not drawn), the melting point lay in the range of 83 to 84 °C.
In the case of `FC(F)c1cc(-c2ccc(C(F)(F)F)cc2)nc2c(I)ncn12`, the melting point came to 159 °C.
`O=C1CC2(C(=O)N1)c1ccccc1Oc1ccccc12`: the melting point lay within 226 to 228 °C.
On to `CCOC(=O)CCCSc1nccc(NC(=S)NCC(F)(F)F)n1`, for which the melting point fell in the range of 104 to 106 °C.
Molecule `C=CCn1nc(-c2ccc(S(C)(=O)=O)cc2)c(-c2ccc(F)cc2)c1C(F)(F)F` had a melting point of 116 to 119 °C.
Molecule `O=C(COc1cc(-c2ccc([N+](=O)[O-])cc2)nc2ccccc12)N1CCOCC1` returned a melting point of 172 °C.
The value for `CN(C)Cc1c[nH]c2ccc(Br)cc12` was 139 °C; that for `CCc1ccc2[nH]c(SCC(F)(F)F)nc2c1` was 127 to 129 °C.
In turn, `CC(C)(C)OC(=O)N[C@H]1CC[C@H](CC=O)CC1` showed a melting point of 61 to 63 °C.
`COc1ccc(C)cc1NC(=O)Nc1ccc(N2CCCN(C(=O)Nc3ccc(OCCO)cc3C(F)(F)F)CC2)cc1`: the melting point lay within 118 to 120 °C.
`CS(=O)(=O)c1ccc(-c2c(-c3ccc(F)cc3)c(C(F)(F)F)nn2-c2ccccc2)cc1` registered a melting point of 202 to 203 °C.
`CC(=O)c1ccc(NC(=O)NCCN(CCNC(=O)Nc2ccc(C(C)=O)cc2)CCNC(=O)Nc2ccc(C(C)=O)cc2)cc1` showed a melting point of 189 to 190 °C.
The value for `CC(C)(C)OC(=O)n1cc(C=C(Br)Br)c2ccccc21` was 101 to 104 °C; that for `O=C(c1ccccc1)n1c2c(c3ccccc31)CC(CO)CC2` (stereo not drawn) was 105 to 107 °C; that for `COc1ccc2c(c1)N(c1ccc(F)cc1)C(=O)C2(C)NC(=O)OCc1ccccc1` (stereo not drawn) was 167 to 169 °C.
For the molecule `O=C1C(Cl)=C(N2CCN(S(=O)(=O)c3ccccc3C(F)(F)F)CC2)C(=O)c2ccccc21`, the melting point lay within 122 to 124 °C.
`CCN(CC)Cn1cnc2c1c(=O)n(C)c(=O)n2C`: the melting point was 114 to 115 °C.
`OCCCOc1ccc(-n2nc(-c3ccccc3)c3cccnc32)cc1` gave a melting point of 135 to 138 °C.
Consider `CN(CC=C(F)C(F)(F)C(F)(F)C(F)(F)F)CCCCCC1Cc2cc(O)ccc2C2C(F)CC3(C)C(O)CCC3C12` (stereo not drawn), for which the melting point came out at 130 °C.
For `O=Cc1[nH]cc2c1CN=C(c1ccccc1Cl)c1cc(Cl)ccc1-2`, the melting point lay in the range of 270 to 274 °C.
As for `NCCCC(=O)N1CCC(c2[nH]nc3c2C(=O)c2c(NC(=O)NN4CCOCC4)cccc2-3)CC1`, the melting point was 172 to 174 °C.
Molecule `C#Cc1ccc(=O)n(C(C)C)n1` gave a melting point of 103 to 104 °C.
The value for `CC(O)(c1ccccc1)c1cc(C2CCCCC2)ccc1O` (stereo not drawn) was 119 °C; that for `NC(=O)C(=O)NC(C(=O)OC(c1ccccc1)c1ccccc1)c1ccco1` (stereo not drawn) was 168 to 170 °C.
Turning to `CC1CC(=O)NN=C1c1ccc2c(c1)N(CC(=O)N1CCN(CCO)CC1)CS2=O` (stereo not drawn), the melting point lay in the range of 231 to 233 °C.
In the case of `CCCC(=O)C(=CNc1ccc(O)cc1OC)C(=O)OCC`, the melting point lay in the range of 140 to 142 °C.
Regarding `CC(=O)Nc1ccccc1S(N)(=O)=O`, the melting point was 154 to 156 °C.
The value for `COc1cc2c(cc1N1CCN(CC3=CC4=CCSC4=C3)CC1)OCC2` was 186 to 190 °C.
Take `CCOC(=O)CCC1Cn2c(-c3ccc(OC)cc3)c(C)c3cccc(c32)O1` (stereo not drawn): the melting point was 154 °C.
In turn, `N#CNC(=NCCN1CCC(C2(c3ccc(F)cc3)OCCO2)CC1)N1CCCCC1` gave a melting point of 155 to 157 °C.
In turn, `O=C(NCCc1cncn1CCc1ccccc1)[C@H]1CN(Cc2ccccc2)CCN1C(=O)NC1CCCCC1` had a melting point of 64.4 °C.
The molecule `CCc1ccc2[nH]c(C(=O)OCc3ccccc3)cc2c1` displayed a melting point of 99 °C.
Molecule `COc1cc(C2CCN(C(=O)C(C)(C)N)CC2)ccc1Nc1ncc2ccc(-c3ccccc3OC)n2n1` had a melting point of 81 to 89 °C.
Molecule `Cc1cc2c(cc1Cl)N(C)C(=O)C2(NC(=O)CN1CCN(C)CC1)c1ccc(Cl)cc1` (stereo not drawn) registered a melting point of 217 to 219 °C.
On to `C=CCN1CC(C(=O)Nc2cc(C)nc(C)n2)CC2c3cccc4[nH]cc(c34)CC21` (stereo not drawn), for which the melting point fell in the range of 182 to 186 °C.
In the case of `CSC(=C[N+](=O)[O-])NCC(O)c1cccc(C)c1` (stereo not drawn) it was 99 to 101 °C; in that of `O=C1C(=CO)c2ccccc2N1c1ccccc1`, 192 to 195 °C.
`COc1ccc(C=Cc2cc(Cl)c(OC)c(OC)c2)cc1O`: the melting point was 105 to 106 °C.
`CCOC(=O)CN1CCc2c(sc(N)c2C(=O)c2ccc(Cl)cc2)C1` came in with a melting point of 105 to 106 °C.
`Sc1nnc(-c2cc3c(Oc4ccc(Cl)cc4)cncc3s2)o1`: the melting point is 236 to 240 °C.
With `CCN1CCN(C2=Nc3cc(Cl)ccc3Oc3ccccc32)CC1`, the melting point fell in the range of 100 to 101 °C.
In the case of `COc1ccc(OCc2ccc3ccccc3n2)cc1C1(c2ccccc2)CC2CCC1C2` (stereo not drawn) it was 138 to 139 °C; in that of `CCOC(=O)c1c(C(C)(C)O)nc(CC)n1Cc1ccc(-c2ccccc2-c2nnnn2C(c2ccccc2)(c2ccccc2)c2ccccc2)cc1`, 150 to 152 °C; in that of `OCCc1ccc(OCc2ccc3ccccc3n2)cc1`, 145 °C.
Regarding `CN1C2CCC1CC(NC(=O)OC(C)(C)C)C2` (stereo not drawn), the melting point was 79 to 81 °C.
In turn, `Nc1cc(-c2nnc(SCc3cccc(F)c3)o2)ccn1` displayed a melting point of 175 to 176 °C.
In the case of `[N-]=[N+]=NCCCn1ccc(-c2ccc(F)cc2)c1-c1ccncc1`, the melting point was in the range of 219 to 222 °C.
Take `O=c1c2ccccc2nc(CCc2c[nH]c3ccccc23)n1-c1ccccc1`: the melting point fell in the range of 193 to 194 °C.
On to `O=C(C=Cc1ccccc1)Nc1cccc(O)c1`, for which the melting point fell in the range of 222 to 223 °C.
`CN1CCN(CC/C=C/c2ccc3c(Nc4ccc(Sc5nccn5C)c(Cl)c4)c(C#N)cnc3c2)CC1` showed a melting point of 225 to 235 °C.
Turning to `CC(O)c1ccc(C(O)(c2ccc3c(c2)c(-c2cccc(Cl)c2)cc(=O)n3C)c2cncn2C)cc1` (stereo not drawn), the melting point is 181 °C.
In the case of `CCOC(=O)C=Nc1c(Cl)cccc1C(=O)O`, the melting point was 175 °C.
In the case of `CCCN1CCCCC1C(=O)Nc1c(C)cccc1C` (stereo not drawn) it was 142 to 145 °C.
Molecule `CC(=O)Nc1cccc2cc(S(=O)(=O)Nc3onc(C)c3C)ccc12` returned a melting point of 210 to 212 °C.
In turn, `CN1C(=O)C(c2ccc(OC(F)F)cc2)(c2cccc(CCCC(F)F)c2)N=C1N` (stereo not drawn) displayed a melting point of 54 to 57 °C.
The value for `Cc1nc(NCc2ccccn2)[nH]c(=O)c1CCO` was 185 °C.
As for `NS(=O)(=O)c1ccc(-c2cnn(Cc3cccc(F)c3)c(=O)c2-c2ccc(F)cc2)cc1`, the melting point lay in the range of 220 to 222 °C.
The value for `O=C1CCN(c2ccc(C=C3SC(=O)NC3=O)cc2F)CC1` was more than 200 °C; that for `NC(=S)c1ncn(C2OC(CO)C(O)C2O)n1` (stereo not drawn) was 173 to 175 °C.
The value for `O=C1NCc2c1cc1ccc3c(c1c2-c1cccnc1)OCO3` was 257 to 260 °C; that for `CCCCCCCCCOc1ccccc1/C=C/C(C)=C/C=C/C(C)=C\C(=O)O` was 135 to 136 °C; that for `Cc1csc(C2CCN(CCCC(O)c3ccc(F)cc3)CC2)n1` (stereo not drawn) was 98 to 99 °C.
In turn, `CC(C)(C)OC(=O)N1CCC(n2c(=O)[nH]c3ccccc32)CC1` returned a melting point of 161 to 163 °C.
